Results published in ChEMBL document CHEMBL1154105, “Optimization of peptide-based inhibitors of prostate-specific antigen (PSA) as targeted imaging agents for prostate cancer” (Bioorg Med Chem, 2009).
Starred links: 1 amine or outer side, 2 acyl side, 3 side chain; linkers in the order of their positions; H or OH if unused. Non-standard residues stand in square brackets, D forms with d. Residues, ends and D or L forms follow the SMILES beside them. *: point of attachment. Ala(imidazol-2-yl) = N[C@@H](Cc1ncc[nH]1)C(=O)O; X2 = C[C@@H](C(=O)[*:2])N(c1ccc2ccccc2c1)[*:1]; Phe(4-Br) = N[C@@H](Cc1ccc(Br)cc1)C(=O)O; N(cHex)Ala = C[C@H](NC1CCCCC1)C(=O)O; Pro(3R-OH) = O=C(O)[C@H]1NCC[C@H]1O; hIle = CC[C@H](C)C[C@H](N)C(=O)O; Met(O) = CS(=O)CC[C@H](N)C(=O)O; boroLeu = CC(C)C[C@H](N*)B(O)O; NPhGly = O=C(O)CNc1ccccc1; Cbz = O=C(OCc1ccccc1)*; tBu = CC(C)(C)*

Target: T1, Prostate-specific antigen (Homo sapiens, UniProt P07288);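 further: Fluorescence-based readout of substrate cleavage by prostate-specific antigen, used to gauge enzyme inhibition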
T1 sequence (P07288 whole entry): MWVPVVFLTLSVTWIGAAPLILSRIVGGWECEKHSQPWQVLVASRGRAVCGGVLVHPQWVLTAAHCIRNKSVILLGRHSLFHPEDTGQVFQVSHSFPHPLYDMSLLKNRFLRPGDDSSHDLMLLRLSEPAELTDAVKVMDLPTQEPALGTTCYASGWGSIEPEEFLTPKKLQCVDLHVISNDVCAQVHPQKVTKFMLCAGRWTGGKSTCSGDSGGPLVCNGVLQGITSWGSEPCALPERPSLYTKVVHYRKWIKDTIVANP
Assay: biochemical
Assay type: tissue-based, Prostate gland
Conditions: not given

Row | Ki [µM] | Compound
1 | > 50 | CC(C)C[C@@H](C=O)NC(=O)[C@@H](NC(=O)[C@H](CCCCN)NC(=O)[C@H](CO)NC(=O)[C@H](CO)NC(=O)OCc1ccccc1)C(C)C (Cbz-SSKVL-aldehyde)
2 | 43.8 | CC(C)C[C@@H](C=O)NC(=O)[C@H](CC(C)C)NC(=O)[C@@H](NC(=O)[C@H](CO)NC(=O)[C@H](CO)NC(=O)OCc1ccccc1)[C@@H](C)O (Cbz-SSTLL-aldehyde)
3 | > 100 | CC(C)C[C@@H](C=O)NC(=O)[C@H](C)N(C(=O)[C@H](CCCCN)NC(=O)[C@H](CO)NC(=O)[C@H](CO)NC(=O)OCc1ccccc1)c1ccc2ccccc2c1 (Cbz-SSK[X2]L-aldehyde)
4 | 18.6 | CC(C)C[C@@H](C=O)NC(=O)[C@H](Cc1ncc[nH]1)NC(=O)[C@H](CCCCN)NC(=O)[C@H](CO)NC(=O)[C@H](CO)NC(=O)OCc1ccccc1 (Cbz-SSK[Ala(imidazol-2-yl)]L-aldehyde)
5 | 13.1 | CC(C)C[C@@H](C=O)NC(=O)[C@H](CC(C)C)NC(=O)[C@H](C)N(C(=O)[C@H](CO)NC(=O)[C@H](CO)NC(=O)OCc1ccccc1)C1CCCCC1 (Cbz-SS[N(cHex)Ala]LL-aldehyde)
6 | 37.4 | CC[C@H](C)C[C@H](NC(=O)[C@H](CCCCN)NC(=O)[C@H](CO)NC(=O)[C@H](CO)NC(=O)OCc1ccccc1)C(=O)N[C@H](C=O)CC(C)C (Cbz-SSK[hIle]L-aldehyde)
7 | > 50 | CC(C)C[C@@H](C=O)NC(=O)[C@H](CO)NC(=O)[C@H](CCCCN)NC(=O)[C@H](CO)NC(=O)[C@H](CO)NC(=O)OCc1ccccc1 (Cbz-SSKSL-aldehyde)
8 | > 500 | CC(C)C[C@@H](C=O)NC(=O)[C@@H]1CCCN1C(=O)[C@H](CCCCN)NC(=O)[C@H](CO)NC(=O)[C@H](CO)NC(=O)OCc1ccccc1 (Cbz-SSKPL-aldehyde)
9 | > 100 | CC(C)C[C@@H](C=O)NC(=O)[C@H](C)NC(=O)[C@H](CCCCN)NC(=O)[C@H](CO)NC(=O)[C@H](CO)NC(=O)OCc1ccccc1 (Cbz-SSKAL-aldehyde)
10 | > 1000 | CC(C)C[C@@H](C=O)NC(=O)[C@H](CC(C)C)NC(=O)[C@@H]1CCCN1C(=O)[C@H](CO)NC(=O)[C@H](CO)NC(=O)OCc1ccccc1 (Cbz-SSPLL-aldehyde)
11 | > 500 | CC(C)C[C@@H](C=O)NC(=O)[C@H](Cc1ccc(Br)cc1)NC(=O)[C@H](CCCCN)NC(=O)[C@H](CO)NC(=O)[C@H](CO)NC(=O)OCc1ccccc1 (Cbz-SSK[Phe(4-Br)]L-aldehyde)

The remaining lines, values behind:

Row | Compound | Ki [µM]
12 | CC(C)C[C@@H](C=O)NC(=O)[C@H](CC(C)C)NC(=O)CNC(=O)[C@H](CO)NC(=O)[C@H](CO)NC(=O)OCc1ccccc1 (Cbz-SSGLL-aldehyde) | > 1000
13 | CSCC[C@H](NC(=O)[C@H](CO)NC(=O)[C@H](CO)NC(=O)OCc1ccccc1)C(=O)N[C@@H](CC(C)C)C(=O)N[C@H](C=O)CC(C)C (Cbz-SSMLL-aldehyde) | 7.5
14 | CC(C)C[C@@H](C=O)NC(=O)[C@H](CCCCN)NC(=O)[C@H](CCCCN)NC(=O)[C@H](CO)NC(=O)[C@H](CO)NC(=O)OCc1ccccc1 (Cbz-SSKKL-aldehyde) | > 50
15 | CC(C)C[C@@H](C=O)NC(=O)CNC(=O)[C@H](CCCCN)NC(=O)[C@H](CO)NC(=O)[C@H](CO)NC(=O)OCc1ccccc1 (Cbz-SSKGL-aldehyde) | > 1000
16 | CC(C)C[C@@H](C=O)NC(=O)[C@H](CC(C)C)NC(=O)[C@H](CCC(=O)O)NC(=O)[C@H](CO)NC(=O)[C@H](CO)NC(=O)OCc1ccccc1 (Cbz-SSELL-aldehyde) | > 1000
17 | CC(C)C[C@@H](C=O)NC(=O)[C@H](CCC(N)=O)NC(=O)[C@H](CCCCN)NC(=O)[C@H](CO)NC(=O)[C@H](CO)NC(=O)OCc1ccccc1 (Cbz-SSKQL-aldehyde) | 21.8
18 | CC(C)C[C@@H](C=O)NC(=O)CN(C(=O)[C@H](CCCCN)NC(=O)[C@H](CO)NC(=O)[C@H](CO)NC(=O)OCc1ccccc1)c1ccccc1 (Cbz-SSK[NPhGly]L-aldehyde) | > 50
19 | CC(C)C[C@@H](C=O)NC(=O)[C@H](CC(=O)O)NC(=O)[C@H](CCCCN)NC(=O)[C@H](CO)NC(=O)[C@H](CO)NC(=O)OCc1ccccc1 (Cbz-SSKDL-aldehyde) | > 1000
20 | CC(C)C[C@@H](C=O)NC(=O)[C@H](C)N(C(=O)[C@H](CCCCN)NC(=O)[C@H](CO)NC(=O)[C@H](CO)NC(=O)OCc1ccccc1)C1CCCCC1 (Cbz-SSK[N(cHex)Ala]L-aldehyde) | > 50
21 | CC(C)C[C@@H](C=O)NC(=O)[C@H](CC(C)C)NC(=O)[C@H](CCC(N)=O)NC(=O)[C@H](CO)NC(=O)[C@H](CO)NC(=O)OCc1ccccc1 (Cbz-SSQLL-aldehyde) | 3.9
22 | CC(C)C[C@@H](C=O)NC(=O)[C@H](CSC(C)(C)C)NC(=O)[C@H](CCCCN)NC(=O)[C@H](CO)NC(=O)[C@H](CO)NC(=O)OCc1ccccc1 (Cbz-SSKC(tBu)L-aldehyde) | > 50
23 | CC(C)C[C@@H](C=O)NC(=O)[C@H](CC(C)C)NC(=O)[C@H](CC(N)=O)NC(=O)[C@H](CO)NC(=O)[C@H](CO)NC(=O)OCc1ccccc1 (Cbz-SSNLL-aldehyde) | 18.2
24 | CC(C)C[C@@H](C=O)NC(=O)[C@@H]1[C@H](O)CCN1C(=O)[C@H](CCCCN)NC(=O)[C@H](CO)NC(=O)[C@H](CO)NC(=O)OCc1ccccc1 (Cbz-SSK[Pro(3R-OH)]L-aldehyde) | > 500
25 | CC(C)C[C@@H](C=O)NC(=O)[C@H](CC(C)C)NC(=O)[C@H](CC[S+](C)[O-])NC(=O)[C@H](CO)NC(=O)[C@H](CO)NC(=O)OCc1ccccc1 (stereo partly specified) (Cbz-SS[Met(O)]LL-aldehyde) | 25.9

System: not listed separately
Assay: Selectivity ratio of Ki for chymotrypsin to Ki for prostate-specific antigen
Conditions: Prostate gland

Row | Ratio Ki | Compound
26 | 60 | CC(C)C[C@H](NC(=O)[C@H](CC(C)C)NC(=O)[C@H](CCCCN)NC(=O)[C@H](CO)NC(=O)[C@H](CO)NC(=O)OCc1ccccc1)B(O)O (Cbz-SSKL-boroLeu)
